{"source": "ChEMBL document CHEMBL4507288", "about": "(2021)", "key": {"[1]": {"target": "5-hydroxytryptamine receptor 1A (Homo sapiens, UniProt P08908)", "sequence (P08908 whole entry)": "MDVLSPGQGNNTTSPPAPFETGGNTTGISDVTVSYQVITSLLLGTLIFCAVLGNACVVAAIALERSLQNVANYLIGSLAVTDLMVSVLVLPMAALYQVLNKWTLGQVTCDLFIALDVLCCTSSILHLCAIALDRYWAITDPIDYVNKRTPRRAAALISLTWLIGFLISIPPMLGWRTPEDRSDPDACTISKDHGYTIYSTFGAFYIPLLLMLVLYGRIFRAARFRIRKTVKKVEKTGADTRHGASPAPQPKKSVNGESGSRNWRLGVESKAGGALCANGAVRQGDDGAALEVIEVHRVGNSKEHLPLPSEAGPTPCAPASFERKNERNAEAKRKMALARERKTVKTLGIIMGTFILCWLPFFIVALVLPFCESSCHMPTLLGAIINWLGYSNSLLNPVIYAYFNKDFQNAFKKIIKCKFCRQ", "assay": "GPCRScan assay: inhibition of 5-HT1A", "set-up": "radioligand conc. used [nm] 0.5 – 1.0, parental cells stable CHO"}, "[2]": {"target": "GABA-A receptor; anion channel (Rattus norvegicus) (UniProt O09028+P15431+P18506+P18508+P19969+P20236+P23574+P23576+P28471+P28473+P30191+P62813+P63079+P63138+Q91ZM7+Q9ES14)", "settings": "Compound concentration 10.0 uM"}, "[3]": {"target": "Beta-1 adrenergic receptor (Homo sapiens) (UniProt P08588)", "settings": "Compound concentration 10.0 uM"}, "[4]": {"test_system": "Tyrosine-protein kinase ABL1 (Homo sapiens), P00519 [F317I]", "sequence (P00519 whole entry F317I)": "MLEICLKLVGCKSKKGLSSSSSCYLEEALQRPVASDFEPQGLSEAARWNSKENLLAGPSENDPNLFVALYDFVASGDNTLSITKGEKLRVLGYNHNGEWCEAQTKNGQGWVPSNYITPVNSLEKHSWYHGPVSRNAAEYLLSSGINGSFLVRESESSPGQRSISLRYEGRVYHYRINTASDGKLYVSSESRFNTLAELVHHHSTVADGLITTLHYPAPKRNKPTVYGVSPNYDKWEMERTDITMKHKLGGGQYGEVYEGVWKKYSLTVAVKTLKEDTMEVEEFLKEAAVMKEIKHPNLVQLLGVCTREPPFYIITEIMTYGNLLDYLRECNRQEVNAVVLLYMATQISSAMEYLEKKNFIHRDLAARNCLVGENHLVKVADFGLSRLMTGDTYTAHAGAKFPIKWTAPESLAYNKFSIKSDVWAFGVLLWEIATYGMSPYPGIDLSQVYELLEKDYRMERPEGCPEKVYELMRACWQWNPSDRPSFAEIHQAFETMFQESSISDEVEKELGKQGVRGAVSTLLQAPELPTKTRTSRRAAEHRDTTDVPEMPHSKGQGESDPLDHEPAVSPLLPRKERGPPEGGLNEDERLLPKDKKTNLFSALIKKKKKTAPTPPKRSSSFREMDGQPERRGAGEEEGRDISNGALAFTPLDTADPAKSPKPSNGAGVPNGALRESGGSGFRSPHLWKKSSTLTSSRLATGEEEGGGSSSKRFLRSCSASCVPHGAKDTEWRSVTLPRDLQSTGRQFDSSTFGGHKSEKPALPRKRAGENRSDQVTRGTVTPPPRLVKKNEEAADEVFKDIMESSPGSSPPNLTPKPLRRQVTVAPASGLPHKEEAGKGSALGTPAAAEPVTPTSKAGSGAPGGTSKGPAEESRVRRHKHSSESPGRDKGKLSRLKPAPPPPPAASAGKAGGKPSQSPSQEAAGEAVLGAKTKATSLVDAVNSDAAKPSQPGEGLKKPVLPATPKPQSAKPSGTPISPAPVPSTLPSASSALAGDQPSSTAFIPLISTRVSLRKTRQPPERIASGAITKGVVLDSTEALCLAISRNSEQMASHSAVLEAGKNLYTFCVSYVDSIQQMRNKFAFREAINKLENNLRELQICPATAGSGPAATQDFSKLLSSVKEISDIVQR", "settings": "Compound concentration 1000.0 nM"}, "[5]": {"target": "Activin receptor type-1B (Homo sapiens) (UniProt P36896)", "settings": "Compound concentration 1000.0 nM"}, "[6]": {"target": "RAC-alpha serine/threonine-protein kinase (Homo sapiens) (UniProt P31749)", "settings": "Compound concentration 1000.0 nM"}, "[7]": {"target": "NUAK family SNF1-like kinase 1 (Homo sapiens) (UniProt O60285)", "settings": "Compound concentration 1000.0 nM"}, "[8]": {"target": "Cyclin-dependent kinase 4 (Homo sapiens) (UniProt P11802)", "settings": "Compound concentration 1000.0 nM"}, "[9]": {"target": "Cyclin-dependent kinase 9 (Homo sapiens) (UniProt P50750)", "settings": "Compound concentration 1000.0 nM"}, "[10]": {"target": "Casein kinase I isoform delta (Homo sapiens) (UniProt P48730)", "settings": "Compound concentration 1000.0 nM"}, "[11]": {"target": "Casein kinase II subunit alpha' (Homo sapiens) (UniProt P19784)", "settings": "Compound concentration 1000.0 nM"}, "[12]": {"target": "Serine/threonine-protein kinase DCLK1 (Homo sapiens) (UniProt O15075)", "settings": "Compound concentration 1000.0 nM"}, "[13]": {"target": "Receptor tyrosine-protein kinase erbB-4 (Homo sapiens) (UniProt Q15303)", "settings": "Compound concentration 1000.0 nM"}, "[14]": {"target": "Fibroblast growth factor receptor 4 (Homo sapiens) (UniProt P22455)", "sequence (P22455 22-802 limits assumed)": "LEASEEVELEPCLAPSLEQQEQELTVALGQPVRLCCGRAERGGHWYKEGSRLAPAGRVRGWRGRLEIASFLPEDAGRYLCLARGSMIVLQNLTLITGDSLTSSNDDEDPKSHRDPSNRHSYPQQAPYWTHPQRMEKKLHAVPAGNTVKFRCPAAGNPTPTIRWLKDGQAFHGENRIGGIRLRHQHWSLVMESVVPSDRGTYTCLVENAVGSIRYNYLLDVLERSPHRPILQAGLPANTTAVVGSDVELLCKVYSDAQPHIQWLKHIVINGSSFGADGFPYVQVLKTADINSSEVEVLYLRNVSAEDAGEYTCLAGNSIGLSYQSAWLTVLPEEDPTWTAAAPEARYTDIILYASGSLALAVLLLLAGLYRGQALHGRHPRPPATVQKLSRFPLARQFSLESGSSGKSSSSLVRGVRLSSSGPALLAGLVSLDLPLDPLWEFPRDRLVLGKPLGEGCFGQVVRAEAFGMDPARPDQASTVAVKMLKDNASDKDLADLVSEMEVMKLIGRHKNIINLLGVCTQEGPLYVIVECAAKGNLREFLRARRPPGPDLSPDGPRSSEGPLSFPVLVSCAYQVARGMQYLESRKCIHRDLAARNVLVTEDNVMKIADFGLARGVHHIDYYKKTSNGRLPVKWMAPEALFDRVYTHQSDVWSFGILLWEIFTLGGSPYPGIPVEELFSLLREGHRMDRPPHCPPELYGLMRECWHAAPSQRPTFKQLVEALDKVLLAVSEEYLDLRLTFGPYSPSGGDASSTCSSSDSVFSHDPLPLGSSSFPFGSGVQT", "settings": "Compound concentration 1000.0 nM"}, "[15]": {"target": "Tyrosine-protein kinase Fgr (Homo sapiens) (UniProt P09769)", "sequence (P09769 2-529 limits assumed)": "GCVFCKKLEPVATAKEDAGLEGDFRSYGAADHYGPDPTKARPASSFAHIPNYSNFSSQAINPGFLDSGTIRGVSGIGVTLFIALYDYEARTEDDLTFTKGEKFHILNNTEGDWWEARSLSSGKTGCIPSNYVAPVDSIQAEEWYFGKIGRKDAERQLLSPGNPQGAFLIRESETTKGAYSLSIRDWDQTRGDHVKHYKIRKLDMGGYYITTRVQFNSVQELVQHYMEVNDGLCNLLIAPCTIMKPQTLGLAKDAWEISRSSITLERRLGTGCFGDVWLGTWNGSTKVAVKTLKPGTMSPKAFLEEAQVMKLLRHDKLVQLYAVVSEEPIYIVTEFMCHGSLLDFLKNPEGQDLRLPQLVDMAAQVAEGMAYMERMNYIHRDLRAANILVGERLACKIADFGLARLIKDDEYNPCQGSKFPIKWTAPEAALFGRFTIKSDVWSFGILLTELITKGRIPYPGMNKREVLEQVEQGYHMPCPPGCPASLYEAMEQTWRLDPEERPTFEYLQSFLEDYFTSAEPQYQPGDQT", "settings": "Compound concentration 1000.0 nM"}, "[16]": {"target": "Insulin receptor-related protein (Homo sapiens) (UniProt P14616)", "settings": "Compound concentration 1000.0 nM"}, "[17]": {"target": "Tyrosine-protein kinase ITK/TSK (Homo sapiens) (UniProt Q08881)", "settings": "Compound concentration 1000.0 nM"}, "[18]": {"target": "Tyrosine-protein kinase JAK1 (Homo sapiens) (UniProt P23458)", "settings": "Compound concentration 1000.0 nM"}, "[19]": {"test_system": "Mast/stem cell growth factor receptor Kit (Homo sapiens), P10721 [A829P]", "settings": "Compound concentration 1000.0 nM"}, "[20]": {"test_system": "Mast/stem cell growth factor receptor Kit (Homo sapiens), P10721 [V559D,T670I]", "settings": "Compound concentration 1000.0 nM"}, "[21]": {"target": "Mast/stem cell growth factor receptor Kit (Homo sapiens) (UniProt P10721)", "settings": "Compound concentration 1000.0 nM"}, "[22]": {"target": "LIM domain kinase 2 (Homo sapiens) (UniProt P53671)", "settings": "Compound concentration 1000.0 nM"}, "[23]": {"target": "Serine/threonine-protein kinase 10 (Homo sapiens) (UniProt O94804)", "settings": "Compound concentration 1000.0 nM"}, "[24]": {"target": "Mitogen-activated protein kinase kinase kinase 2 (Homo sapiens) (UniProt Q9Y2U5)", "settings": "Compound concentration 1000.0 nM"}, "[25]": {"target": "Mitogen-activated protein kinase kinase kinase 4 (Homo sapiens) (UniProt Q9Y6R4)", "settings": "Compound concentration 1000.0 nM"}, "[26]": {"target": "Mitogen-activated protein kinase kinase kinase kinase 3 (Homo sapiens) (UniProt Q8IVH8)", "settings": "Compound concentration 1000.0 nM"}, "[27]": {"target": "Dual specificity mitogen-activated protein kinase kinase 6 (Homo sapiens) (UniProt P52564)", "settings": "Compound concentration 1000.0 nM"}, "[28]": {"target": "Mitogen-activated protein kinase kinase kinase 9 (Homo sapiens) (UniProt P80192)", "settings": "Compound concentration 1000.0 nM"}, "[29]": {"target": "3-phosphoinositide-dependent protein kinase 1 (Homo sapiens) (UniProt O15530)", "sequence (O15530 whole entry)": "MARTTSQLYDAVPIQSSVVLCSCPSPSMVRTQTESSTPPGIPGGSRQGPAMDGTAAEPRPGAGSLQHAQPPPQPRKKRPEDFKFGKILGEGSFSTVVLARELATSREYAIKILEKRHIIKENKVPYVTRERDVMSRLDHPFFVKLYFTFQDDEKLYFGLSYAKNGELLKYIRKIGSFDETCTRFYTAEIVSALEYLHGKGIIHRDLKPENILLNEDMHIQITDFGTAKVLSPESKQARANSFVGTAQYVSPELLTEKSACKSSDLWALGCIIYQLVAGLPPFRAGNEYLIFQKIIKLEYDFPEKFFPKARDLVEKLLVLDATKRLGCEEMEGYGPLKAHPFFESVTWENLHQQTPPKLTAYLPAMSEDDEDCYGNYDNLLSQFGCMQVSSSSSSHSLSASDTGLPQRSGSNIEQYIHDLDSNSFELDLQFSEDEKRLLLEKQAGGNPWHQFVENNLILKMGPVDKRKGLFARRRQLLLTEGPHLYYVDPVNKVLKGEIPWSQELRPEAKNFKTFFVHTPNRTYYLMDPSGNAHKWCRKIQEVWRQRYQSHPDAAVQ", "settings": "Compound concentration 1000.0 nM"}, "[30]": {"test_system": "Phosphatidylinositol 4,5-bisphosphate 3-kinase catalytic subunit alpha isoform (Homo sapiens), P42336 [E545A]", "settings": "Compound concentration 1000.0 nM"}, "[31]": {"test_system": "Phosphatidylinositol 4,5-bisphosphate 3-kinase catalytic subunit alpha isoform (Homo sapiens), P42336 [H1047Y]", "settings": "Compound concentration 1000.0 nM"}, "[32]": {"target": "Membrane-associated tyrosine- and threonine-specific cdc2-inhibitory kinase (Homo sapiens) (UniProt Q99640)", "settings": "Compound concentration 1000.0 nM"}, "[33]": {"target": "Protein kinase C eta type (Homo sapiens) (UniProt P24723)", "settings": "Compound concentration 1000.0 nM"}, "[34]": {"target": "Protein-tyrosine kinase 2-beta (Homo sapiens) (UniProt Q14289)", "sequence (Q14289 whole entry, looked up)": "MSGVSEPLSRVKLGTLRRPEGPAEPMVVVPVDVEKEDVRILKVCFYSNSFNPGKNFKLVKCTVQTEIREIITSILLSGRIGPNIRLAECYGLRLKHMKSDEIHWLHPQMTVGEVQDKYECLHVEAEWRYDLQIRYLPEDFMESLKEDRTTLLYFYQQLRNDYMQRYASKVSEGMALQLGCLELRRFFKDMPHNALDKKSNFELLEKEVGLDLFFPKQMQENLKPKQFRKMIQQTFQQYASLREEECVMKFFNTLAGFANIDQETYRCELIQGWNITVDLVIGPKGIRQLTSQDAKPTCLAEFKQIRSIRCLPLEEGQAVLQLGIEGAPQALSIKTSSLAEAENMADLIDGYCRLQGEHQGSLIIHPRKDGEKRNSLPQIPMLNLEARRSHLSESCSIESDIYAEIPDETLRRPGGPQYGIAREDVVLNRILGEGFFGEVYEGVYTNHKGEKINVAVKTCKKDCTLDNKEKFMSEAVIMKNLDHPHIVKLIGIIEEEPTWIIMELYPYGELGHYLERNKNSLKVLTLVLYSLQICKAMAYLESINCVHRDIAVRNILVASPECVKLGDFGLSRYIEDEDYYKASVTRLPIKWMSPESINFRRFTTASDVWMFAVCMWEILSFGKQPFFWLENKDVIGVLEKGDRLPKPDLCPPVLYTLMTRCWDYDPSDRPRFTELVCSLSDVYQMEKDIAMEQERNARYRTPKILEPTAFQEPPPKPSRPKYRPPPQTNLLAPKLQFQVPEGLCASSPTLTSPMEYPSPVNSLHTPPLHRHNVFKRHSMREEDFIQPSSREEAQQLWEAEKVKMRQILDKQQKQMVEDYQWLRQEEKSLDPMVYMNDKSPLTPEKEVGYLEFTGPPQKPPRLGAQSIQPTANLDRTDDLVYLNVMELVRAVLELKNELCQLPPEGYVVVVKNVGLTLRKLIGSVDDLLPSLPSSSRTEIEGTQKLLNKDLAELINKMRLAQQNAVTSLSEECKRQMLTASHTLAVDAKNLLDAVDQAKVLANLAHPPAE", "settings": "Compound concentration 1000.0 nM"}, "[35]": {"target": "Serine/threonine-protein kinase RIO2 (Homo sapiens) (UniProt Q9BVS4)", "settings": "Compound concentration 1000.0 nM"}, "[36]": {"target": "Serine/threonine-protein kinase Sgk1 (Homo sapiens) (UniProt O00141)", "settings": "Compound concentration 1000.0 nM"}, "[37]": {"target": "Tyrosine-protein kinase Tec (Homo sapiens) (UniProt P42680)", "settings": "Compound concentration 1000.0 nM"}, "[38]": {"target": "Dual specificity testis-specific protein kinase 1 (Homo sapiens) (UniProt Q15569)", "sequence (Q15569 whole entry, looked up)": "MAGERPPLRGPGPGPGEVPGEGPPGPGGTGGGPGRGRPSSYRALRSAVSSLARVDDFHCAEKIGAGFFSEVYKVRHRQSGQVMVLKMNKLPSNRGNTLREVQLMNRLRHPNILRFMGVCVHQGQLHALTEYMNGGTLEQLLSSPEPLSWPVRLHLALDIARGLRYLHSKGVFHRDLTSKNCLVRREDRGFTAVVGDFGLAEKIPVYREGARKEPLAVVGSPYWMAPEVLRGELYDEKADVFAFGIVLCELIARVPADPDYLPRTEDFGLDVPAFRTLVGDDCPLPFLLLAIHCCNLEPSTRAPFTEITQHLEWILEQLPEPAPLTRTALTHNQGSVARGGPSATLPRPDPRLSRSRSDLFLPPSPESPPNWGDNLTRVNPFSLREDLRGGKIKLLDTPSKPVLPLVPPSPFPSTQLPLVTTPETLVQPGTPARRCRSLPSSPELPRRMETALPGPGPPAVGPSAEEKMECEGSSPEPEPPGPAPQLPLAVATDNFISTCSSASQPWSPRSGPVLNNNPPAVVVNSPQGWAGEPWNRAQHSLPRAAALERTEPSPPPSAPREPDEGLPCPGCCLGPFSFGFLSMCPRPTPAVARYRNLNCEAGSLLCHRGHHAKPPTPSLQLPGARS", "settings": "Compound concentration 1000.0 nM"}, "[39]": {"target": "Serine/threonine-protein kinase TNNI3K (Homo sapiens) (UniProt Q59H18)", "settings": "Compound concentration 1000.0 nM"}, "[40]": {"target": "Dual specificity protein kinase TTK (Homo sapiens) (UniProt P33981)", "settings": "Compound concentration 1000.0 nM"}, "[41]": {"target": "Serine/threonine-protein kinase ULK1 (Homo sapiens) (UniProt O75385)", "settings": "Compound concentration 1000.0 nM"}, "[42]": {"target": "Phosphatidylinositol 3-kinase catalytic subunit type 3 (Homo sapiens) (UniProt Q8NEB9)", "settings": "Compound concentration 1000.0 nM"}, "[43]": {"target": "Serine/threonine-protein kinase WNK1 (Homo sapiens) (UniProt Q9H4A3)", "settings": "Compound concentration 1000.0 nM"}, "[44]": {"target": "Serine/threonine-protein kinase 32C (Homo sapiens) (UniProt Q86UX6)", "settings": "Compound concentration 1000.0 nM"}}, "note": "pKi: −log10 of the molar value."}
{"compound": "CC(C)(C)OC(=O)N1CCCC1CNC1CCC(c2cc(F)ccc2F)(S(=O)(=O)c2ccc(Cl)cc2)CC1", "note": "(centres undefined) [GSI-NC]", "values": [{"measurement": "pKi", "setting": "[1]", "result": 5.56}, {"measurement": "inhibition", "setting": "[2]", "result": 11, "unit": "%"}, {"measurement": "inhibition", "setting": "[3]", "result": 3.61, "unit": "%"}]}
{"compound": "O=S(=O)(NC1CCC(c2cc(F)ccc2F)(S(=O)(=O)c2ccc(Cl)cc2)CC1)C(F)(F)F", "note": "(centres undefined) [MRK-560]", "values": [{"measurement": "residual activity", "setting": "[4]", "result": 100, "unit": "%"}, {"measurement": "residual activity", "setting": "[5]", "result": 87, "unit": "%"}, {"measurement": "residual activity", "setting": "[6]", "result": 5, "unit": "%"}, {"measurement": "residual activity", "setting": "[7]", "result": 83, "unit": "%"}, {"measurement": "residual activity", "setting": "[8]", "result": 100, "unit": "%"}, {"measurement": "residual activity", "setting": "[9]", "result": 91, "unit": "%"}, {"measurement": "residual activity", "setting": "[10]", "result": 87, "unit": "%"}, {"measurement": "residual activity", "setting": "[11]", "result": 99, "unit": "%"}, {"measurement": "residual activity", "setting": "[12]", "result": 100, "unit": "%"}, {"measurement": "residual activity", "setting": "[13]", "result": 94, "unit": "%"}, {"measurement": "residual activity", "setting": "[14]", "result": 100, "unit": "%"}, {"measurement": "residual activity", "setting": "[15]", "result": 99, "unit": "%"}, {"measurement": "residual activity", "setting": "[16]", "result": 100, "unit": "%"}, {"measurement": "residual activity", "setting": "[17]", "result": 97, "unit": "%"}, {"measurement": "residual activity", "setting": "[18]", "result": 100, "unit": "%"}, {"measurement": "residual activity", "setting": "[19]", "result": 100, "unit": "%"}, {"measurement": "residual activity", "setting": "[20]", "result": 100, "unit": "%"}, {"measurement": "residual activity", "setting": "[21]", "result": 100, "unit": "%"}, {"measurement": "residual activity", "setting": "[22]", "result": 87, "unit": "%"}, {"measurement": "residual activity", "setting": "[23]", "result": 100, "unit": "%"}, {"measurement": "residual activity", "setting": "[24]", "result": 98, "unit": "%"}, {"measurement": "residual activity", "setting": "[25]", "result": 99, "unit": "%"}, {"measurement": "residual activity", "setting": "[26]", "result": 100, "unit": "%"}, {"measurement": "residual activity", "setting": "[27]", "result": 100, "unit": "%"}, {"measurement": "residual activity", "setting": "[28]", "result": 98, "unit": "%"}, {"measurement": "residual activity", "setting": "[29]", "result": 100, "unit": "%"}, {"measurement": "residual activity", "setting": "[30]", "result": 95, "unit": "%"}, {"measurement": "residual activity", "setting": "[31]", "result": 100, "unit": "%"}, {"measurement": "residual activity", "setting": "[32]", "result": 100, "unit": "%"}, {"measurement": "residual activity", "setting": "[33]", "result": 99, "unit": "%"}, {"measurement": "residual activity", "setting": "[34]", "result": 100, "unit": "%"}, {"measurement": "residual activity", "setting": "[35]", "result": 82, "unit": "%"}, {"measurement": "residual activity", "setting": "[36]", "result": 83, "unit": "%"}, {"measurement": "residual activity", "setting": "[37]", "result": 100, "unit": "%"}, {"measurement": "residual activity", "setting": "[38]", "result": 100, "unit": "%"}, {"measurement": "residual activity", "setting": "[39]", "result": 100, "unit": "%"}, {"measurement": "residual activity", "setting": "[40]", "result": 70, "unit": "%"}, {"measurement": "residual activity", "setting": "[41]", "result": 84, "unit": "%"}, {"measurement": "residual activity", "setting": "[42]", "result": 100, "unit": "%"}, {"measurement": "residual activity", "setting": "[43]", "result": 100, "unit": "%"}, {"measurement": "residual activity", "setting": "[44]", "result": 100, "unit": "%"}]}
